The text below walks through data of ChEMBL document CHEMBL1129599, “Quantitative structure-activity relationship study of fibrinogen inhibitors, [[4-(4-amidinophenoxy)butanoyl]aspartyl]valine (FK633) derivatives, using a novel hydrophobic descriptor” (J Med Chem, 1996).

A short description of series [1]: The retention time in min (35 uM). In kind it is ADME.
A short description of series [2]: The retention time in min (40 uM). In kind it is ADME.
Series [3] in a line: Micelle/water partition coefficient. In kind it is ADME. The note with it: buffer.
Series [4] is described as follows: The retention time in min (25 uM). It counts as ADME.
A short description of series [5]: The retention time in min (30 uM). It counts as ADME.
The target in series [6] is T1, Integrin alpha-IIb/beta-3 (Homo sapiens, UniProt P05106+P08514). Kind of series: Inhibition of binding to integrin alphaIIb-beta3. It counts as protein-complex assay.
The nature of series [7]: Inhibition of alphaIIb-beta3 integrin.
The target of series [8] is T1, Integrin alpha-IIb/beta-3. Briefly: Inhibition of alphaIIb-beta3 integrin. It counts as protein-complex assay.
Series [9] is described as follows: Inhibition of binding to fibrinogen receptor.

T1 sequence (P05106 27-788 limits assumed): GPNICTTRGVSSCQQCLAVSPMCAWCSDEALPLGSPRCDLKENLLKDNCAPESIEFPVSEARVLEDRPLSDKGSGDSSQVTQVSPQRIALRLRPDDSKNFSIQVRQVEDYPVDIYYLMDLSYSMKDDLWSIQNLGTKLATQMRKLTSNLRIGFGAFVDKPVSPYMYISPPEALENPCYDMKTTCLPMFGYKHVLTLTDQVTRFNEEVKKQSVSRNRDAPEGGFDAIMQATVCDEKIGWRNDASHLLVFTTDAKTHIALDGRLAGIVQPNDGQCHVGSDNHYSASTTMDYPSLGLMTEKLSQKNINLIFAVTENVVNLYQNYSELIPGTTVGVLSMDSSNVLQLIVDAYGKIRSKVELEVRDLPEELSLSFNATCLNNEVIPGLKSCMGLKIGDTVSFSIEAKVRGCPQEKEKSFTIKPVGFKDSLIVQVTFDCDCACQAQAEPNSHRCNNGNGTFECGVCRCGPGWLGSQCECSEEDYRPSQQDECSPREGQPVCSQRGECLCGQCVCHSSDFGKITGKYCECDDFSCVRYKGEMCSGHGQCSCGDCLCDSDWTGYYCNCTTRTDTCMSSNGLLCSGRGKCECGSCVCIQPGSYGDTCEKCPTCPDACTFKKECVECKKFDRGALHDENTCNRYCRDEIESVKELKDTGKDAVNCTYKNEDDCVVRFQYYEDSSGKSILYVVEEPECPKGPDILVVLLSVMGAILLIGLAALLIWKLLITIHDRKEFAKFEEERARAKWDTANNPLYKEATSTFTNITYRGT
T1 sequence (P08514 32-887 limits assumed): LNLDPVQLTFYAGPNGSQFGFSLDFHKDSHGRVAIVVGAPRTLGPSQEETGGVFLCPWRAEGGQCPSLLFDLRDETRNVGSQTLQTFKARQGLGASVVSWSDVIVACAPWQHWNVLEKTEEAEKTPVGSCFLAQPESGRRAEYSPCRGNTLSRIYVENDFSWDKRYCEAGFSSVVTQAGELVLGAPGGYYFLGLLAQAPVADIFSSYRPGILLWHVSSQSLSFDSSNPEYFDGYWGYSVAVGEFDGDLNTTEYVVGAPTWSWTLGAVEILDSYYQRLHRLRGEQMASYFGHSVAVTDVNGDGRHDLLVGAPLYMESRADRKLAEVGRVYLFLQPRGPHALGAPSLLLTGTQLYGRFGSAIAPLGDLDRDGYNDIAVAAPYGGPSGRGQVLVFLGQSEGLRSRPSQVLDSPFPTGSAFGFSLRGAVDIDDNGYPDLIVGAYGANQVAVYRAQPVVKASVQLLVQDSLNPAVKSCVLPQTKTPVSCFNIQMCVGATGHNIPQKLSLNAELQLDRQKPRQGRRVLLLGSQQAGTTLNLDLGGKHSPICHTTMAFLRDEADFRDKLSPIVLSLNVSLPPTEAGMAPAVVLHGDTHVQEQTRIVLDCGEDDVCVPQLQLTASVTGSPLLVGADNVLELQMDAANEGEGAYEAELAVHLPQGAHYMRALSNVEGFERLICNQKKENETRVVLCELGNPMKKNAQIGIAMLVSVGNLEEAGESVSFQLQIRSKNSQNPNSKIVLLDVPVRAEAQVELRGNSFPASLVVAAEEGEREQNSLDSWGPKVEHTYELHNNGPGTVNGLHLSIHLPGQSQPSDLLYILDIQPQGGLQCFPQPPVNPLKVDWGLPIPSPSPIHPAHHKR
T1 sequence (P08514 891-1039 limits assumed): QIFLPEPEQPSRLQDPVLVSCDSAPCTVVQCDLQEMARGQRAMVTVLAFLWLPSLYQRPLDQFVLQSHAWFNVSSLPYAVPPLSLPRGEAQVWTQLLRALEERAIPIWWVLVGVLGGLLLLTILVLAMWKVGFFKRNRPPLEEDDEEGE

With `COC(=O)[C@H](Cc1ccc(O)cc1)NC(=O)[C@H](CC(=O)O)NC(=O)CCCCOc1ccc(C(=N)N)cc1`, the Retention time in series [1] is 15.56 min; in [2], 14.28 min; in series [4], 20.18 min; in series [5], 17.31 min. The “Log Pmw” value in series [3] is recorded as 2.09. Moreover, the IC50 – broadly, the concentration at which inhibition is half-maximal – in [6] is 4.47 µM.
For `CC[C@H](C)[C@H](NC(=O)[C@H](CC(=O)O)NC(=O)CCCOc1ccc(C(=N)N)cc1)C(=O)O`, the Retention time in [1] was determined as 8.25 min; in series [2], 7.826 min; in [4], 9.413 min; in series [5], 8.773 min. For the same compound, the “Log Pmw” value in series [3] is 1.47. Further, in series [7], the “Log IC50” value was -6.85.
Regarding `CC(C)(C)C[C@H](NC(=O)[C@H](CC(=O)O)NC(=O)CCCOc1ccc(C(=N)N)cc1)C(=O)O`, the Retention time in series [1] amounted to 12.06 min; in series [2], 11.19 min; in [4], 14.11 min; in series [5] it was 12.96 min. Further, in series [3], the “Log Pmw” value stood at 1.59. Also, the IC50 in [8] was 0.229 µM.
For the compound `CN(C(=O)[C@H](CC(=O)O)NC(=O)CCCCOc1ccc(C(=N)N)cc1)[C@@H](Cc1ccc(O)cc1)C(=O)O`, the Retention time was 14.24 min in series [1], 12.91 min in series [2], 17.87 min in series [4] and 15.67 min in [5]. For the same compound, in [3], the “Log Pmw” value is 2. Moreover, the “Log IC50” value in [7] is reported as -6.57.
On to `CN(C(=O)[C@H](CC(=O)O)NC(=O)CCCOc1ccc(C(=N)N)cc1)[C@@H](Cc1ccc(O)cc1)C(=O)O`, for which the Retention time in [1] came out at 11.82 min; in [2], 10.91 min; in series [4] it was 14.85 min; in series [5] it was 13.01 min. Besides, in series [3], the “Log Pmw” value stood at 1.96. The compound further showed an IC50 in series [8] of 0.129 µM.
In the case of `N=C(N)c1ccc(OCCCCC(=O)N[C@@H](CC(=O)O)C(=O)N[C@@H](CO)C(=O)O)cc1`, the Retention time is recorded as 3.238 min in series [1], 3.199 min in [2], 3.324 min in [4] and 3.269 min in series [5]. The “Log Pmw” value in [3] worked out at 0.904.
Take `CC(C)[C@H](NC(=O)[C@H](CC(=O)O)NC(=O)CCCCOc1ccc(C(=N)N)cc1)C(=O)O`: the Retention time in series [1] is 6.832 min; in series [2] it was 6.52 min; in series [4], 7.547 min; in series [5] it was 7.12 min. The “Log Pmw” value in series [3] is listed as 1.32. In addition, the “Log IC50” value in [7] is listed as -6.64.
`N=C(N)c1ccc(OCCCC(=O)N[C@@H](CC(=O)O)C(=O)N[C@@H](Cc2ccc(O)cc2)C(=O)O)cc1`: the Retention time in [1] turned out to be 8.79 min; in series [2] it was 8.23 min; in series [4] it was 10.54 min; in [5], 9.51 min. Besides, in series [3], the “Log Pmw” value stood at 1.74.
For the compound `N=C(N)c1ccc(OCCCCC(=O)N[C@@H](CC(=O)O)C(=O)N[C@@H](Cc2ccc(O)cc2)C(=O)O)cc1`, the Retention time in series [1] is given as 10.57 min; in [2] it was 9.72 min; in series [4], 12.79 min; in [5], 11.47 min. For the same compound, the “Log Pmw” value in series [3] came out at 1.82. Moreover, the “Log IC50” value in series [7] was -6.19.
`CC(C)[C@H](NC(=O)[C@H](CC(=O)O)NC(=O)CCCOc1ccc(C(=N)N)cc1)C(=O)O`: the Retention time is reported as 5.347 min in series [1], 5.207 min in series [2], 5.898 min in series [4] and 5.545 min in [5]. The “Log Pmw” value in series [3] was determined as 1.29. Further, the IC50 in [8] is 0.11 µM.
Regarding `CC(C)C[C@H](NC(=O)[C@H](CC(=O)O)NC(=O)CCCOc1ccc(C(=N)N)cc1)C(=O)O`, the Retention time in series [1] was 8.25 min; in [2], 7.826 min; in series [4] it was 9.413 min; in [5], 8.773 min. Besides, the “Log Pmw” value in series [3] was 1.47. Besides, in [8], the IC50 is 0.135 µM.
In the case of `CCCC[C@H](NC(=O)[C@H](CC(=O)O)NC(=O)CCCOc1ccc(C(=N)N)cc1)C(=O)O`, the Retention time in series [1] is on record as 9.491 min; in [2] it was 8.943 min; in series [4] it was 11.11 min; in series [5] it was 10.21 min. In series [3], the “Log Pmw” value turned out to be 1.58. Also, the “Log IC50” value in [9] is given as -7.12.
